Measured values as given in patent US4568689A, “Pharmaceutical preparation for the treatment of hypertensive disease and myocardial infarction” (priority 1983, dated 1986).
“Also recorded” adds a separate entry of the source.

What was measured:
[1] = test system: hemodynamic effects of acetylcholine, neoepinephrine, noradrenaline, histamine and angiotensin; assay: influence on hemodynamic effects of acetylcholine, noradrenaline, neoepinephrine, angiotensin and histamine in narcotized cats; assay type: in vivo
Description: (§1) The effect of the pharmaceutical preparation according to the present invention on the arterial pressure and vegetative responses was studied in acute experiments on cats with a mass of 2.8-4.0 kg narcotized with α-glucochloralose (90 mg/kg) and urethane (100 mg/kg, intraperitoneally). The breathing, arterial pressure in the common carotid artery and electrocardiogram of the second standard lead were recorded.
(§2) The influence of the preparation according to the present invention on hemodynamic effects of acetylcholine (0.1 μg/kg) neoepinephrine (0.2 μg/kg), noradrenaline (1 μg/kg), histamine (1.5 μg/kg) and angiotensin (0.1 μg/kg) was also studied. The preparation of this invention was intravenously administered in the form of a 2.5% solution in doses of 0.5 to 10 mg/kg. The peripheral part of the vagus nerve was irritated by supromaximum pulses with the frequency of 30 Hz and duration of 0.1 ms.

[2] = test system: arterial pressure and vegetative responses in narcotized animals; assay: arterial pressure, breathing and electrocardiogram in narcotized cats, intravenous; assay type: in vivo
Description: as §1, §2

[3] = test system: white mongrel mice; assay: in vivo; conditions: mouse, ip
Description: (§3) Acute toxicity measurements were carried out in experiments on white mongrel mice upon intraperitoneal administration.

[4] = in vivo; conditions: mouse, ip
Description: as §3

[5] = test system: arterial pressure of rats with spontaneous hypertension; assay: hypotensive effect, intraperitoneal, spontaneously hypertensive rats; assay type: in vivo
Description: The study of the hypotensive effect was carried out in experiments on spontaneously hypertensive male rats of the Akamoto-Aoki line aged 20-25 weeks. The prior art preparation-nifedipine was used for the purpose of comparison. The measurement of the arterial pressure was effected on the tail vein of the rats by the indirect method. The animals were divided into groups (10 in each) and trained for two weeks with the view to ensure their adaptation to the unit for the measurement of the arterial pressure. The level of the arterial pressure prior to administration of the test preparations was measured three times: two days, one day and directly prior to administration of the test preparations. The preparation was administered in the form of a 2.5% aqueous solution, nifedipine--in the form of a 2.5% suspension in Twin-80 intraperitoneally. […]

[6] = test system: experimental necrosis of myocardium caused by introduction of adrenaline; assay: histological analysis of experimental necrosis of myocardium caused by adrenaline; assay type: in vivo, rats of the Wistar line
Description: A comparative study of the effects produced by the preparation according to the present invention and finoptin on an experimental necrosis of myocardium caused by introduction of adrenaline.
The experiments were carried out on rats of the Wistar line of gregarious keeping, both sexes, with a mass of 170 to 225 g. Each preparation was studied on a separate group of animals: (group of adrenaline-control, group of finoptin, group of the preparation according to the present invention). 72 rats were used in the experiments altogether. Injuries of myocardium were caused by way of a single-time subcutaneous administration of a 0.1% solution of adrenaline hydrochloride in the dose of 3 mg per kg of the rat's bodyweight. […] The preparation of this invention was administered subcutaneously, finoptin-per os. On the first day of the experiment the preparations were administered 30 minutes after injection of adrenaline hydrochloride. The experiment lasted for 19 days. Slaughters were effected on the 4th, 8th, 12th and 19th day of the experiment. The animals were decapitated. The heart was fixed in a 10% solution of neutral formalin and sealed in paraffin. Serial sections with the thickness of 5-6μ were coloured by Ehrlich hematoxylin-eosin. The state of vessels of myocardium, cardiomyocytes and interstitial tissue were evaluated by histological analysis.

[7] = test system: arterial pressure of spontaneously hypertensive rats; assay: effect of the oral form on arterial pressure, spontaneously hypertensive rats; assay type: in vivo
[8] = 25 mg/kg intraperitoneally, 30 minutes
[9] = 25 mg/kg intraperitoneally, 1 hour
[10] = 25 mg/kg intraperitoneally, 2 hours
[11] = 25 mg/kg intraperitoneally, 4 hours
[12] = 50 mg/kg intraperitoneal, 30 minutes
[13] = 50 mg/kg intraperitoneally, 30 minutes
[14] = 50 mg/kg intraperitoneally, 1 hour
[15] = 50 mg/kg intraperitoneally, 2 hours
[16] = 50 mg/kg intraperitoneally, 4 hours
[17] = 50 mg/kg intraperitoneally, 24 hours
[18] = 24 hours after a single-time administration
[19] = 4th day, grade/number of animals (6)
[20] = 8th day, grade/number of animals (6)
[21] = 12th day, grade/number of animals (6)
[22] = 19th day, grade/number of animals (5)

For C[N+]1(C)CC(CC(=O)[O-])C(=O)N1 (stereo not drawn) [Preparation of this invention, (1,1-dimethyl-3-oxopyrazolin-1-io-4-yl)acetate], the “Hemodynamic effect, Neoepinephrine” value ([1]; 10 mg/kg intravenously, neoepinephrine 0.2 μg/kg) was -35%, the “Hemodynamic effect, Noradrenaline” value ([1]; 0.5-3.0 mg/kg intravenously, noradrenaline 1 μg/kg) was -10% and the “blocking of α- and β-receptors and the cholinergic system” value ([1]; higher doses (10 mg/kg)) was “substantially blocks both α- and β-receptors, as well as the cholinergic system”. The “direct influence on effects of angiotensin and histamine” value ([1]; higher doses (10 mg/kg)) was “does not provide any direct influence on effects of angiotensin and histamine”, the “Variation of arterial pressure” value ([2]; 5 mg/kg intravenously) was -16% and the peripheral resistance ([2]; in vivo) was “reduction of peripheral resistance”. The “effect on breathing and electrocardiogram” value ([2]; intravenously, 0.5 to 10 mg/kg) was “does not substantially affect the breathing and electrocardiogram of the animals”, the LD50 [3] was 2,239 (1,279-3,917) mg/kg and the LD50 [4] was 2240 mg/kg. For the same compound, the “Variation of arterial pressure, diastolic” value (shortened to “Variation … diastolic”) [5, 8] was -1 % of the initial, the “Variation of arterial pressure, systolic” value [5, 8] was -3 % of the initial and the “Variation … diastolic” value [5, 9] was -7 % of the initial. For the same compound, the “Variation of arterial pressure, systolic” value [5, 9] was -5 % of the initial, the “Variation … diastolic” value [5, 10] was -19 % of the initial and the “Variation of arterial pressure, systolic” value [5, 10] was -3 % of the initial. The “Variation … diastolic” value [5, 11] was -18 % of the initial, the “Variation of arterial pressure, systolic” value [5, 11] was -7 % of the initial and the “reduction of diastolic pressure” value [5, 12] was 23.5%. For the same compound, the “reduction of systolic pressure” value [5, 12] was 17.6%, the “Variation … diastolic” value [5, 13] was -23 % of the initial and the “Variation of arterial pressure, systolic” value [5, 13] was -17 % of the initial. For the same compound, the “Variation … diastolic” value [5, 14] was -28 % of the initial, the “Variation of arterial pressure, systolic” value [5, 14] was -12 % of the initial and the “Variation … diastolic” value [5, 15] was -26 % of the initial. The “Variation of arterial pressure, systolic” value [5, 15] was -18 % of the initial, the “Variation … diastolic” value [5, 16] was -41 % of the initial and the “Variation of arterial pressure, systolic” value [5, 16] was -21 % of the initial. For the same compound, the “Variation … diastolic” value [5, 17] was -19 % of the initial, the “Variation of arterial pressure, systolic” value [5, 17] was -17 % of the initial and the “reduction of diastolic pressure” value [5, 18] was 28.5%. The “reduction of systolic pressure” value [5, 18] was 18.8%, the “difference between systolic and diastolic pressures” value ([5]; see Table 1) was “increases the difference between systolic and diastolic pressures” and the “changes in cardiomyocytes” value ([6]; 4th day, 25 mg/kg) was “The granular-lumpy decomposition, necrosis of 3-5 cells is observed in a half of the investigated animals”. For the same compound, the “changes in interstitial tissue” value ([6]; 4th day, 25 mg/kg) was “The formation of granulomae on the side of the interstitial tissue is observed in all of the animals”, the “changes in vessels” value ([6]; 4th day, 25 mg/kg) was “the left ventricle capillaries are plethoric. In two cases insignificant infiltrations of the adventitia with lymphoid cells are observed” and the “edema (interstitial tissue)” value [6, 19] was 0/6. For the same compound, the “necrobiotic regions in the wall” value [6, 19] was 0/6, the “necrosis of more than 5 cells” value [6, 19] was 0/6 and the “wall necrosis (vessels)” value [6, 19] was 0/6. The “overall therapeutic effect on the myocardium” value ([6]; 4th, 8th, 12th and 19th day) was “possesses a clearly manifested therapeutic effect allowing no significant changes in the myocardium, prevents the growth of the scarring tissue, contributes to the restoration of morphological structures of the myocardium”, the “changes in interstitial tissue” value ([6]; 8th day, 25 mg/kg) was “the formation of the scarring tissue is to a lesser extent than in the control group” and the “changes in vessels” value ([6]; 8th day, 25 mg/kg) was “the coronary vessels are without changes; in some cases insignificantly plethoric vessels and changes in cells in the form of swelling are observed”. The diffusive round-cell infiltration [6, 20] was 0/6, the “edema (interstitial tissue)” value [6, 20] was 0/6 and the “infiltration of the adventitia with lymphoid cells” value (from here on “infiltration of the adventitia”) [6, 20] was 0/6. For the same compound, the “necrobiotic regions in the wall” value [6, 20] was 0/6, the “necrosis of more than 5 cells” value [6, 20] was 0/6 and the “nuclei (pyknosis)” value [6, 20] was 0/6. The “wall necrosis (vessels)” value [6, 20] was 0/6, the “changes in cardiomyocytes” value ([6]; 12th day, 25 mg/kg) was “In comparison with the 8th day of the experiment eosinophilia and contructure type changes are decreased” and the “changes in interstitial tissue” value ([6]; 12th day, 25 mg/kg) was “the scarring tissue formation is more distinctly pronounced. These changes are substantially less revealed than the changes in the control group (adrenaline)”. The “changes in vessels” value ([6]; 12th day, 25 mg/kg) was “an insignificant plethora of the vessels is observed on the 12th day of the experiment”, the “Nuclei (pykhnosis)” value [6, 21] was 0/6 and the diffusive round-cell infiltration [6, 21] was 0/6. The “edema (interstitial tissue)” value [6, 21] was 0/6, the “infiltration of the adventitia” value [6, 21] was 0/5 and the “necrobiotic regions with changes in the vessel wall” value [6, 21] was 0/6. The “necrosis of more than 5 cells” value [6, 21] was 0/6, the “wall necrosis (vessels)” value [6, 21] was 0/6 and the “changes in cardiomyocytes” value ([6]; 19th day, 25 mg/kg) was “In half of the animals the granular-lumpy decomposition is less pronounced. Necrosis of individual cells and eosinophilia, as well as contructure type changes are also observed”. For the same compound, the “changes in connective tissue” value ([6]; 19th day, 25 mg/kg) was “a less pronounced formation of the scarring tissue is to be noted as compared to the control group”, the “changes in vessels” value ([6]; 19th day, 25 mg/kg) was “By the 19th day this phenomena becomes more clearly pronounced; also recorded: no changes were noticed on the part of the coronary vessels. The plethora of capillaries in the left ventricle wall is noticed” and the “changes in the endothelium” value [6, 22] was 0/5. The “infiltration of the adventitia” value [6, 22] was 0/5, the “necrobiotic regions with changes in the vessel wall” value [6, 22] was 0/5 and the “necrosis of more than 5 cells” value [6, 22] was 0/5. The “nuclei (pyknosis)” value [6, 22] was 0/5, the “Variation … diastolic” value ([7]; 50 mg/kg per os, 30 minutes) was -10 % of the initial and the “Variation of arterial pressure, systolic” value ([7]; 50 mg/kg per os, 30 minutes) was -3 % of the initial. For the same compound, the “Variation … diastolic” value ([7]; 50 mg/kg per os, 1 hour) was “+2 % of the initial”, the “Variation … diastolic” value ([7]; 50 mg/kg per os, 2 hours) was -8 % of the initial and the “Variation of arterial pressure, systolic” value ([7]; 50 mg/kg per os, 2 hours) was -5 % of the initial. For the same compound, the “Variation … diastolic” value ([7]; 50 mg/kg per os, 4 hours) was -3 % of the initial, the “Variation … diastolic” value ([7]; 50 mg/kg per os, 24 hours) was -2 % of the initial and the “Variation of arterial pressure, systolic” value ([7]; 50 mg/kg per os, 24 hours) was -7 % of the initial. For the same compound, the “Variation … diastolic” value ([7]; 75 mg/kg per os, 30 minutes) was -12 % of the initial, the “Variation of arterial pressure, systolic” value ([7]; 75 mg/kg per os, 30 minutes) was -16 % of the initial and the “Variation of arterial pressure, systolic” value ([7]; 75 mg/kg per os, 2 hours) was -18 % of the initial. For the same compound, the “Variation … diastolic” value ([7]; 75 mg/kg per os, 4 hours) was -11 % of the initial, the “Variation of arterial pressure, systolic” value ([7]; 75 mg/kg per os, 4 hours) was -8 % of the initial and the “Variation … diastolic” value ([7]; 75 mg/kg per os, 24 hours) was -22 % of the initial. For the same compound, the “Variation of arterial pressure, systolic” value ([7]; 75 mg/kg per os, 24 hours) was -20 % of the initial, the “stable reduction of the arterial pressure” value ([7]; 75 mg/kg per os, 24 hours after administration) was “about 20%” and the “Variation … diastolic” value ([7]; 100 mg/kg per os, 30 minutes) was -11 % of the initial. For the same compound, the “Variation of arterial pressure, systolic” value ([7]; 100 mg/kg per os, 30 minutes) was -13 % of the initial, the “Variation … diastolic” value ([7]; 100 mg/kg per os, 2 hours) was -7 % of the initial and the “Variation of arterial pressure, systolic” value ([7]; 100 mg/kg per os, 2 hours) was -8 % of the initial. The “Variation … diastolic” value ([7]; 100 mg/kg per os, 4 hours) was -13 % of the initial, the “Variation of arterial pressure, systolic” value ([7]; 100 mg/kg per os, 4 hours) was -13 % of the initial and the “Variation of arterial pressure, systolic” value ([7]; 100 mg/kg per os, 24 hours) was -12 % of the initial.
